Assay results: EP3287436B1, “COMPOUNDS AND COMPOSITIONS FOR USE IN THE TREATMENT OF BCAT1-MEDIATED DISEASES” (Ergon Pharmaceuticals LLC, priority 2016, dated 2018)

Assays:
recombinant human BCAT1 = target: T1, recombinant human BCAT1 (Homo sapiens, UniProt P54687); test: Inhibition of BCAT1 enzymatic activity (NADH consumption, coupled leucine dehydrogenase assay); format: biochemical; conditions: for remaining activity at 0.001 µM: compound concentration 1 nM; for remaining activity at 0.01 µM: compound concentration 10 nM; for remaining activity at 0.1 µM: compound concentration 100 nM; for IC50: inhibition of the enzymatic activity of BCAT1, range stated for compounds 2, 7 and 8 together
T1 construct: purchased Abcam
T1 sequence (P54687 1-386): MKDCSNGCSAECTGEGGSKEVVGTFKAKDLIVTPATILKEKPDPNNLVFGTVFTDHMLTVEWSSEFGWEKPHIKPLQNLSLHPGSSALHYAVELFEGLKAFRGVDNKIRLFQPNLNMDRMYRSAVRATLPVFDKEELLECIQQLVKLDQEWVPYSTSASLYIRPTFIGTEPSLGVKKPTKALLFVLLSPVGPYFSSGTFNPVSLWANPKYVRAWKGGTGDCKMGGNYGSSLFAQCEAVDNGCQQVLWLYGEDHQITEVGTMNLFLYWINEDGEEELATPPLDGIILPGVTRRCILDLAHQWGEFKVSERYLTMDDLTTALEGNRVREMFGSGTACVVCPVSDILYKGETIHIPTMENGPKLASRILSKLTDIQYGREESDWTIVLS
Method: Inhibition of BCAT1 enzymatic activity by compounds 2. 7 and 8. The ability of the compounds as disclosed herein to inhibit BCAT1 enzymatic activity was confirmed spectrophotometrically. In this experiment, 0.2 to 0.5 µg of recombinant human BCAT1 from Abcam was added to 95 µL of a reaction buffer containing […] 5'-phosphate (PLP), 50 mM ammonium sulfate, 0.05 mM NADH, 5mM DTT, 5mM a-ketoglutarate, 10 mM leucine, and 0.95 U leucine dehydrogenase (EMD Chemicals) and various concentrations of compounds 2, 7 and 8. Addition of BCAT1 to the reaction mixture led to the consumption of NADH, which was measured fluorometrically (ex:330-370 nm; em:450 nm). The rate of change of fluorescence was then estimated over of period of 10 min (10 cycles; 1 cycle/min). The assay was performed in triplicate in a 96-well plate. In Table 1, the results were expressed as % Control Enzymatic Activity, which is defined as the BCAT1 activity observed in the reaction mixture in the absence of an inhibitor. […]

[1] = tested on: TGF-β1-stimulated human fibroblasts; test: Inhibition of collagen I production/secretion (ELISA of conditioned media); format: cell-based; conditions: for concentration at which collagen I secretion is completely inhibited: Table 2; for concentration at which collagen I secretion is inhibited: summary of Table 3; for factor of increase of the collagen inhibitory activity: relative to compound 7
Method: In vitro fibrosis is assessed by measuring collagen synthesis after treatment of fibroblast cells with a profibrotic stimuli such as TGF-β1 or bleomycin. Collagen secretion into the media can be quantified in conditioned media using an appropriate ELISA kit.
Confluent monolayers of human fibroblasts, plated onto duplicate 35 mm dishes, were pretreated with various concentrations of compounds 2, 6, and 7 for 30 min followed by stimulation of the cells with 7 ng/mL TGF-β1 for 48 hrs. At the end of the experiment, conditioned media were collected and assessed for the presence of secreted collagen I, whereas cells were collected and lysed. Collagen I secretion was quantified using an ELISA kit from R&D Systems per the manufacturer's instructions and expressed as arbitrary absorbance units per µg of cell lysate. In Table 2, results are shown as % Control Collagen Production, defined as the amount of collagen I secreted per µg of cell lysate from fibroblast cultures stimulated with TGF-β1 in the absence of an inhibitor. […]
Confluent monolayers of human fibroblasts, plated onto duplicate 35 mm dishes, were pretreated with various concentrations of compounds 28 and 29 and Control Collagen Production determined according to the protocol set out in Example 5. In Table 3, results are shown as % Control Collagen Production, defined as the amount of collagen I secreted per µg of cell lysate from fibroblast cultures stimulated with TGF-β1 in the absence of an inhibitor. […]

[2] = control = BCAT1 activity in the absence of an inhibitor
[3] = compound concentration 2 nM (as printed in Table 2), 30 min pretreatment, 7 ng/mL TGF-β1 for 48 hrs
[4] = compound concentration 5 nM (as printed in Table 2), 30 min pretreatment, 7 ng/mL TGF-β1 for 48 hrs
[5] = compound concentration 10 nM (as printed in Table 2), 30 min pretreatment, 7 ng/mL TGF-β1 for 48 hrs

Compound | remaining activity at 0.001 µM (recombinant human BCAT1; [2]) [%] | remaining activity at 0.01 µM (recombinant human BCAT1; [2]) [%] | remaining activity at 0.1 µM (recombinant human BCAT1; [2]) [%] | IC50 (recombinant human BCAT1) [nM] | concentration at which collagen I secretion is completely inhibited [1] [mM] | % Control Collagen Production [1, 3] [%] | % Control Collagen Production [1, 4] [%] | % Control Collagen Production [1, 5] [%] | concentration at which collagen I secretion is inhibited [1] [mM] | factor of increase of the collagen inhibitory activity [1] | other results
CC(=O)C(C)CC(Cc1ccccc1)C(=O)O (centres unmarked) [Compound 2, 2-benzyl-4-methyl-5-oxohexanoic acid] | 86 | 71 | 28 | 0.5 to 50 | 5 to 10 | 111 | 4 | – | – | – | –
CC(CCC(=O)O)C(=O)c1ccccc1 (centres unmarked) [Compound 6, 4-methyl-5-oxo-5-phenylpentanoic acid] | – | – | – | – | 5 to 10 | 105 | 77 | 2 | – | – | –
CC(=O)C(CCC(=O)O)c1ccccc1 (centres unmarked) [Compound 7, 5-oxo-4-phenylhexanoic acid] | 67 | 0 | 0 | 0.5 to 50 | 5 to 10 | 150 | 41 | 2 | 5 to 10 | – | –
CC(=O)C(C)CC(CCC#N)C(=O)O (centres unmarked) [Compound 8, 2-(2-cyanoethyl)-4-methyl-5-oxohexanoic acid] | – | 23 | 16 | 0.5 to 50 | – | – | – | – | – | – | remaining activity at 0.0005 µM (recombinant human BCAT1; compound concentration 0.5 nM, control = BCAT1 activity in the absence of an inhibitor): 47%
O=C(O)CCC(C(=O)c1ccccc1)c1ccccc1 (centres unmarked) [Compound 28, 5-oxo-4,5-diphenylpentanoic acid] | – | – | – | – | – | – | – | – | 2 | 2-5 | % Control Collagen Production ([1]; compound concentration 1 mM (Table 3), protocol of Example 5): 121%; % Control Collagen Production ([1]; compound concentration 2 mM (Table 3), protocol of Example 5): 18%; % Control Collagen Production ([1]; compound concentration 5 mM (Table 3), protocol of Example 5): 0%; % Control Collagen Production ([1]; compound concentration 10 mM (Table 3), protocol of Example 5): 0%
O=C(O)CCC(C(=O)c1ccc(Br)cc1)c1ccccc1 (centres unmarked) [Compound 29, 5-(4-bromophenyl)-5-oxo-4-phenylpentanoic acid] | – | – | – | – | – | – | – | – | 0.1 | 100 | % Control Collagen Production ([1]; compound concentration 0.01 mM (Table 3), protocol of Example 5): 88%; % Control Collagen Production ([1]; compound concentration 0.05 mM (Table 3), protocol of Example 5): 71%; % Control Collagen Production ([1]; compound concentration 0.1 mM (Table 3), protocol of Example 5): 8%
